{"source": "patent US10947252B2", "about": "“Inhibitors of KEAP1-Nrf2 protein-protein interaction” (Janssen Pharmaceutica NV, priority 2018, dated 2021)", "data": [{"tested_on": "Glo-Response ARE-luc2P HEK293 cell line", "experiment": "ARE luciferase reporter cell-based assay;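 further: luciferase signal tracks Nrf2 activation of the ARE once compounds disrupt KEAP1-Nrf2 binding, read with One-Glo reagent, DMSO serving as low control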", "settings": "Homo sapiens, HEK293, 24 h, average of results obtained", "units": {"EC50": "nM"}, "values": [{"molecule": "CCn1nnc2c(C)c([C@H](CC(=O)O)c3ccc(C)c(CN4C[C@@H]5COCCN5c5ncccc5S4(=O)=O)c3)ccc21", "note": "(single isomer, unassigned) [Example 140, (*R)-3-(3-(((*R)-5,5-Dioxido-7a,8,10,11-tetrahydro-[1,4]oxazino[3,4-d]pyrido[2,3-f][1,2,5]thiadiazepin-6(7H)-yl)methyl)-4-methylphenyl)-3-(1-ethyl-4-methyl-1H-benzo[d][1,2,3]triazol-5-yl)propanoic Acid]", "EC50": 19}, {"molecule": "CCn1nnc2c(C)c([C@@H](CC(=O)O)c3ccc(C)c(CN4C[C@@H]5CCCCN5c5ncccc5S4(=O)=O)c3)ccc21", "note": "(single isomer, unassigned) [Example 142, (*S)-3-(3-(((*S)-5,5-Dioxido-7,7a,8,9,10,11-hexahydro-6H-dipyrido[2,1-d:2′,3′-f][1,2,5]thiadiazepin-6-yl)methyl)-4-methylphenyl)-3-(1-ethyl-4-methyl-1H-benzo[d][1,2,3]triazol-5-yl)propanoic Acid]", "EC50": 1.1}, {"molecule": "CCn1nnc2c(C)c([C@H](CC(=O)O)c3ccc(C)c(CN4C[C@@H]5CCCCN5c5ncccc5S4(=O)=O)c3)ccc21", "note": "(single isomer, unassigned) [Example 143, (*R)-3-(3-(((*S)-5,5-Dioxido-7,7a,8,9,10,11-hexahydro-6H-dipyrido[2,1-d:2′,3′-f][1,2,5]thiadiazepin-6-yl)methyl)-4-methylphenyl)-3-(1-ethyl-4-methyl-1H-benzo[d][1,2,3]triazol-5-yl)propanoic Acid]", "EC50": 45}, {"molecule": "CCn1nnc2c(C)c([C@@H](CC(=O)O)c3ccc(C)c(CN4C[C@H]5CCCCN5c5ncccc5S4(=O)=O)c3)ccc21", "note": "(single isomer, unassigned) [Example 145, (*S)-3-(3-(((*R)-5,5-Dioxido-7,7a,8,9,10,11-hexahydro-6H-dipyrido[2,1-d:2′,3′-f][1,2,5]thiadiazepin-6-yl)methyl)-4-methylphenyl)-3-(1-ethyl-4-methyl-1H-benzo[d][1,2,3]triazol-5-yl)propanoic Acid]", "EC50": 1.1}, {"molecule": "CCn1nnc2c(C)c([C@H](CC(=O)O)c3ccc(C)c(CN4C[C@H]5CCCCN5c5ncccc5S4(=O)=O)c3)ccc21", "note": "(single isomer, unassigned) [Example 146, (*R)-3-(3-(((*R)-5,5-Dioxido-7,7a,8,9,10,11-hexahydro-6H-dipyrido[2,1-d:2′,3′-f][1,2,5]thiadiazepin-6-yl)methyl)-4-methylphenyl)-3-(1-ethyl-4-methyl-1H-benzo[d][1,2,3]triazol-5-yl)propanoic Acid]", "EC50": 4.2}, {"molecule": "CCn1nnc2c(C)c([C@@H](CC(=O)O)c3ccc(C)c(CN4C[C@H]5CCCN5c5ccccc5S4(=O)=O)c3)ccc21", "note": "(single isomer, unassigned) [Example 153, (*S)-3-(3-(((R)-5,5-Dioxido-7a,8,9,10-tetrahydrobenzo[f]pyrrolo[2,1-d][1,2,5]thiadiazepin-6(7H)-yl)methyl)-4-methylphenyl)-3-(1-ethyl-4-methyl-1H-benzo[d][1,2,3]triazol-5-yl)propanoic Acid]", "EC50": 3}, {"molecule": "CCn1nnc2c(C)c([C@H](CC(=O)O)c3ccc(C)c(CN4C[C@H]5CCCN5c5ccccc5S4(=O)=O)c3)ccc21", "note": "(single isomer, unassigned) [Example 154, (*R)-3-(3-(((R)-5,5-Dioxido-7a,8,9,10-tetrahydrobenzo[f]pyrrolo[2,1-d][1,2,5]thiadiazepin-6(7H)-yl)methyl)-4-methylphenyl)-3-(1-ethyl-4-methyl-1H-benzo[d][1,2,3]triazol-5-yl)propanoic Acid]", "EC50": 59}, {"molecule": "CCn1nnc2c(C)c([C@@H](CC(=O)O)c3ccc(C)c(CN4CC(C)(C)Oc5ccccc5S4(=O)=O)c3)ccc21", "note": "(single isomer, unassigned) [Example 158, (*S)-3-(3-((4,4-Dimethyl-1,1-dioxido-3,4-dihydro-2H-benzo[b][1,4,5]oxathiazepin-2-yl)methyl)-4-methylphenyl)-3-(1-ethyl-4-methyl-1H-benzo[d][1,2,3]triazol-5-yl)propanoic Acid]", "EC50": 6.2}, {"molecule": "CCn1nnc2c(C)c([C@H](CC(=O)O)c3ccc(C)c(CN4CC(C)(C)Oc5ccccc5S4(=O)=O)c3)ccc21", "note": "(single isomer, unassigned) [Example 159, (*R)-3-(3-((4,4-Dimethyl-1,1-dioxido-3,4-dihydro-2H-benzo[b][1,4,5]oxathiazepin-2-yl)methyl)-4-methylphenyl)-3-(1-ethyl-4-methyl-1H-benzo[d][1,2,3]triazol-5-yl)propanoic Acid]", "EC50": 34}, {"molecule": "Cc1ccc([C@H](CC(=O)O)c2ccc3c(nnn3C3CC3)c2C)cc1CN1CC2(CC2)N(C)c2ncccc2S1(=O)=O", "note": "(single isomer, unassigned) [Example 225, (*S)-3-(1-Cyclopropyl-4-methyl-1H-benzo[d][1,2,3]triazol-5-yl)-3-(4-methyl-3-((5′-methyl-1′,1′-dioxido-5′H-spiro[cyclopropane-1,4′-pyrido[2,3-f][1,2,5]thiadiazepin]-2′(3′H)-yl)methyl)phenyl)propanoic Acid]", "EC50": 5}, {"molecule": "Cc1ccc([C@@H](CC(=O)O)c2ccn3c(C(F)(F)F)nnc3c2C)cc1CN1C[C@H]2COCCN2c2ncccc2S1(=O)=O", "note": "(single isomer, unassigned) [Example 263, (*R)-3-(3-(((*S)-5,5-Dioxido-7a,8,10,11-tetrahydro-[1,4]oxazino[3,4-d]pyrido[2,3-f][1,2,5]thiadiazepin-6(7H)-yl)methyl)-4-methylphenyl)-3-(8-methyl-3-(trifluoromethyl)-[1,2,4]triazolo[4,3-a]pyridin-7-yl)propanoic Acid]", "EC50": 1160}, {"molecule": "Cc1ccc([C@@H](c2ccn3c(C(F)(F)F)nnc3c2C)C(C)(C)C(=O)O)cc1CN1CC2(CCNCC2)Oc2ncccc2S1(=O)=O", "note": "(single isomer, unassigned) [Example 336, (*S)-3-(3-((1′,1′-Dioxidospiro[piperidine-4,4′-pyrido[2,3-b][1,4,5]oxathiazepin]-2′(3′H)-yl)methyl)-4-methylphenyl)-2,2-dimethyl-3-(8-methyl-3-(trifluoromethyl)-[1,2,4]triazolo[4,3-a]pyridin-7-yl)propanoic Acid]", "EC50": 1830}, {"molecule": "Cc1ccc([C@H](c2ccn3c(C(F)(F)F)nnc3c2C)C(C)(C)C(=O)O)cc1CN1CC2(CCOCC2)Oc2nc(CCC(=O)NCCOCCN)ccc2S1(=O)=O", "note": "(single isomer, unassigned) [Example 344, (*R)-3-(3-((7′-(3-((2-(2-Aminoethoxy)ethyl)amino)-3-oxopropyl)-1′,1′-dioxido-2,3,5,6-tetrahydrospiro[pyran-4,4′-pyrido[2,3-b][1,4,5]oxathiazepin]-2′(3′H)-yl)methyl)-4-methylphenyl)-2,2-dimethyl-3-(8-methyl-3-(trifluoromethyl)-[1,2,4]triazolo[4,3-a]pyridin-7-yl)propanoic Acid]", "EC50": 4930}, {"molecule": "Cc1cc2cc([C@@H](c3ccc(C)c(CN4CC5(CCOCC5)Oc5nc(OCCN6CCCC6)c(C)cc5S4(=O)=O)c3)C(C)(C)C(=O)O)n(C)c2nn1", "note": "(single isomer, unassigned) [Example 346, (*S)-3-(3,7-Dimethyl-7H-pyrrolo[2,3-c]pyridazin-6-yl)-2,2-dimethyl-3-(4-methyl-3-((8′-methyl-1′,1′-dioxido-7′-(2-(pyrrolidin-1-yl)ethoxy)-2,3,5,6-tetrahydrospiro[pyran-4,4′-pyrido[2,3-b][1,4,5]oxathiazepin]-2′(3′H)-yl)methyl)phenyl)propanoic Acid]", "EC50": 49.8}, {"molecule": "Cc1cc2cc([C@H](c3ccc(C)c(CN4CC5(CCOCC5)Oc5nc(OCCN6CCCC6)c(C)cc5S4(=O)=O)c3)C(C)(C)C(=O)O)n(C)c2nn1", "note": "(single isomer, unassigned) [Example 347, (*R)-3-(3,7-Dimethyl-7H-pyrrolo[2,3-c]pyridazine-6-yl)-2,2-dimethyl-3-(4-methyl-3-((8′-methyl-1′,1′-dioxido-7′-(2-(pyrrolidine-1-yl)-ethoxy)2,3,5,6-tetrahydrospiro[pyran-4,4′-pyrido[2,3-b][1,4,5]oxathiazepin]-2′,(3′H)-yl)methyl)phenyl)propanoic Acid]", "EC50": 3580}, {"molecule": "Cc1cc2cc([C@@H](c3ccc(C)c(CN4CC5(CCOCC5)Oc5nc(OCCN6CCCCC6)c(C)cc5S4(=O)=O)c3)C(C)(C)C(=O)O)n(C)c2nn1", "note": "(single isomer, unassigned) [Example 348, (*S)-3-(3,7-Dimethyl-7H-pyrrolo[2,3-c]pyridazine-6-yl)-2,2-dimethyl-3-(4-methyl-3-((8′-methyl-1′,1′-dioxido-7′-(2-(piperidine-1-yl)-ethoxy)2,3,5,6-tetrahydrospiro[pyran-4,4′-pyrido[2,3-b][1,4,5]oxathiazepin]-2′,(3′H)-yl)methyl)phenyl)propanoic Acid]", "EC50": 19.2}, {"molecule": "Cc1cc2cc([C@H](c3ccc(C)c(CN4CC5(CCOCC5)Oc5nc(OCCN6CCCCC6)c(C)cc5S4(=O)=O)c3)C(C)(C)C(=O)O)n(C)c2nn1", "note": "(single isomer, unassigned) [Example 349, (*R)-3-(3,7-Dimethyl-7H-pyrrolo[2,3-c]pyridazine-6-yl)-2,2-dimethyl-3-(4-methyl-3-((8′-methyl-1′,1′-dioxido-7′-(2-(piperidine-1-yl)-ethoxy)2,3,5,6-tetrahydrospiro[pyran-4,4′-pyrido[2,3-b][1,4,5]oxathiazepin]-2′,(3′H)-yl)methyl)phenyl)propanoic Acid]", "EC50": 1540}, {"molecule": "Cc1cc2cc([C@@H](c3ccc(C)c(CN4CC5(CC5)Oc5nc(OCCN6CCCCC6)c(C)cc5S4(=O)=O)c3)C(C)(C)C(=O)O)n(C)c2nn1", "note": "(single isomer, unassigned) [Example 350, (*S)-3-(3,7-Dimethyl-7H-pyrrolo[2,3-c]pyridazine-6-yl)-2,2-dimethyl-3-(4-methyl-3-((8′-methyl-1′,1′-dioxido-7′-(2-(piperidine-1-yl)-ethoxy)spiro[cyclopropane-1,4′-pyrido[2,3-b][1,4,5]oxathiazepin]-2′,(3′H)-yl)methyl)phenyl)propanoic Acid]", "EC50": 23.4}]}]}
